Assays:
[1] = tested on: 3′ UTR of the TNFα gene; assay: cell-based luciferase reporter assay, 5B cell line (luciferase gene with entire 3′ UTR of the TNFα gene); design: species or system mouse; conditions: for Luciferase 5B (% of DMSO control): 1 h, then LPS, 5B cell line
Protocol: The candidate compounds were tested in a high-throughput, cell-based luciferase reporter assay. For this assay, a commercially available mouse macrophage Raw 264.7 cell line was stably transfected with a construct containing the CMV promoter operably linked to the luciferase gene which was modified using standard molecular biology techniques to contain the entire 3′ UTR of the TNFα gene. This 3′ UTR is important for the stability and translation of TNFα in cells. To control for effects of candidate compounds that are not specific for TNFα, a control cell line, called “3B,” was generated by stably transfecting the 264.7 cell line with a commercially available construct containing the luciferase gene (without the addition of the heterologous 3′ UTR of the TNFα gene) under the regulation of the CMV promoter.
[…] Then, lipopolysaccharide (LPS) was added to stimulate TNFα secretion. Luciferase activity was measured by determining the luminescence intensity due to the reaction of lucifern, ATP, Mg^2+, and molecular O2 (see, for example, Ausubel et al., supra). The luciferase activity in a cell incubated with a candidate compound was reported as a percentage of the luciferase activity for the corresponding cell incubated with DMSO vehicle only.
After correction for any effect caused by the administration of the DMSO only vehicle control, the effect of a candidate compound on luciferase activity in the 3B control cell line represents the global effect of the compound on any step required for expression or activity of luciferase protein, such as luciferase gene transcription, mRNA processing, mRNA stability, translation, protein stability, or enzymatic activity. […] In this case, the luciferase activity in the 5B cell line treated with the DMSO vehicle control is similar to the luciferase activity in the control 3B cell line treated with the candidate compound. Thus, the response of the 5B cell line (as a percent of the DMSO control) and the ratio of the luciferase activity in the 5B cell line (as a percent of the DMSO control) to the luciferase activity in the control 3B cell line (as a percent of the DMSO control) are similar. In desirable embodiments, the response of the 5B cell line and the 5B/3B ratio differ by less than 50, 40, 30, 20, 10, or 5%.

[2] = tested on: TNFα; assay: ELISA of TNFα secreted into the media after LPS; format: cell-based; conditions: 10 μM compound, 1 h, then LPS
Protocol: The ability of candidate compounds to reduce the amount of secreted TNFα was also directly tested using an ELISA assay. […] A standard ELISA analysis was used to measure the amount of TNFα secreted into the media (see, for example, Ausubel et al., supra). The effect of a candidate compound on TNFα secretion in this assay is reported in the following tables as a percentage of the amount of TNFα secreted by a control cell that was administered a DMSO vehicle control only.

[3] = 10 μM compound, ratio of 5B to control 3B cell line

Compound	effect on luciferase activity in the 5B cell line (luciferase assay), in words [1]	Luciferase 5B (% of DMSO control) ([1]; 10 μM compound)	Luciferase 5B/3B (% of DMSO control 5B)/(% of DMSO control 3B) [1, 3]	TNFα Secretion (% of DMSO control) [2]	Luciferase 5B/3B (% of DMSO control 5B)/(% of DMSO control 3B) ([1]; 10 μM compound (Table 11))
CC(=NNC(=N)N)c1cccc(C(=O)NC(CC2CCCCC2)C(=O)N2CCN(C(=O)C(Cc3ccccc3)NC(=O)c3ccc(C(=NNC(=N)N)c4ccccc4)cc3)CC2)c1 (mixture of isomers) [MES 10181]	inhibited TNFα secretion	17 % of DMSO control	49 (% of DMSO control 5B)/(% of DMSO control 3B)		
CC(=NNC(=N)N)c1cccc(C(=O)NC(C(=O)N2CCN(C(=O)C(Cc3ccccc3)NC(=O)c3ccc(C(=NNC(=N)N)c4ccccc4)cc3)CC2)C(C)C)c1 (mixture of isomers) [MES 10183]	inhibited TNFα secretion	58 % of DMSO control	57 (% of DMSO control 5B)/(% of DMSO control 3B)		
CCCCC(NC(=O)c1ccc(C(=NNC(=N)N)c2ccccc2)cc1)C(=O)N1CCN(C(=O)C(Cc2ccccc2)NC(=O)c2ccc(C(=NNC(=N)N)c3ccccc3)cc2)CC1 (mixture of isomers) [MES 10184]		22 % of DMSO control	35 (% of DMSO control 5B)/(% of DMSO control 3B)		
CCCCC(NC(=O)c1cccc(C(C)=NNC(=N)N)c1)C(=O)N1CCN(C(=O)C(Cc2ccccc2)NC(=O)c2ccc(C(=NNC(=N)N)c3ccccc3)cc2)CC1 (mixture of isomers) [MES 10185]	inhibited TNFα secretion	31 % of DMSO control	35 (% of DMSO control 5B)/(% of DMSO control 3B)	37 % of DMSO control	
CC(C)CC(NC(=O)c1ccc(C(=NNC(=N)N)c2ccccc2)cc1)C(=O)N1CCN(C(=O)C(Cc2cccc3ccccc23)NC(=O)c2ccc(C(=NNC(=N)N)c3ccccc3)cc2)CC1 (mixture of isomers) [MES 10191]		46 % of DMSO control	86 (% of DMSO control 5B)/(% of DMSO control 3B)	22 % of DMSO control	
CC(C)CC(NC(=O)c1ccc(C(=NNC(=N)N)c2ccccc2)cc1)C(=O)N1CCN(C(=O)C(Cc2ccc(Cl)cc2)NC(=O)c2ccc(C(=NNC(=N)N)c3ccccc3)cc2)CC1 (mixture of isomers) [MES 10192]		37 % of DMSO control	47 (% of DMSO control 5B)/(% of DMSO control 3B)	17 % of DMSO control	
CC(C)CC(NC(=O)c1ccc([N+](=O)[O-])cc1)C(=O)N1CCN(C(=O)C(Cc2ccccc2)NC(=O)c2ccc(C(=NNC(=N)N)c3ccccc3)cc2)CC1 (mixture of isomers) [MES 10224]		36 % of DMSO control	37 (% of DMSO control 5B)/(% of D		
CC(C)CC(NC(=O)c1ccc(I)cc1)C(=O)N1CCN(C(=O)C(Cc2ccccc2)NC(=O)c2ccc(C(=NNC(=N)N)c3ccccc3)cc2)CC1 (mixture of isomers) [MES 10226]	greatest inhibitor activity	23 % of DMSO control	26 (% of DMSO control 5B)/(% of D		
CC(C)CC(NC(=O)c1ccc(Cl)cc1)C(=O)N1CCN(C(=O)C(Cc2ccccc2)NC(=O)c2ccc(C(=NNC(=N)N)c3ccccc3)cc2)CC1 (mixture of isomers) [MES 10227]		34 % of DMSO control	39 (% of DMSO control 5B)/(% of D		
CC(C)CC(NC(=O)c1ccc2ccccc2c1)C(=O)N1CCN(C(=O)C(Cc2ccccc2)NC(=O)c2ccc(C(=NNC(=N)N)c3ccccc3)cc2)CC1 (mixture of isomers) [MES 10228]		38 % of DMSO control	40 (% of DMSO control 5B)/(% of D		
CC(C)CC(NC(=O)c1ccc(C(=NNC(=N)N)c2ccccc2)cc1)C(=O)N1CCN(C(=O)C(Cc2ccccc2)NC(=O)CCc2cccnc2)CC1 (mixture of isomers) [MES 10234]		60 % of DMSO control	58 (% of DMSO control 5B)/(% of D		
CC(C)CC(NC(=O)c1ccc(C(=NNC(=N)N)c2ccccc2)cc1)C(=O)N1CCN(C(=O)C(Cc2ccccc2)NC(=O)c2cnccn2)CC1 (mixture of isomers) [MES 10235]		70 % of DMSO control	75 (% of DMSO control 5B)/(% of D		
CC(=NNC(=N)N)c1cccc(C(=O)NC(CC(C)C)C(=O)N2CCN(C(=O)C(Cc3ccc([N+](=O)[O-])cc3)NC(=O)c3ccc(C(=NNC(=N)N)c4ccccc4)cc3)CC2)c1 (mixture of isomers) [MES 10257]		34 % of DMSO control	60 (% of DMSO control 5B)/(% of DMSO control 3B)		
CC(=NN=C(N)N)c1cccc(C(=O)NC(CC(C)C)C(=O)N2CCN(C(=O)C(CC(C)C)NC(=O)c3ccc(C(=NN=C(N)N)c4ccccc4)cc3)CC2)c1 (mixture of isomers) [MES 11408]	decrease TNFα secretion	59 % of DMSO control	54 (% of DMSO control 5B)/(% of D		
CC(=NN=C(N)N)c1cccc(C(=O)NC(CC(C)C)C(=O)NCCCNC(=O)C(C)NC(=O)c2ccc(C(=NN=C(N)N)c3ccccc3)cc2)c1 (mixture of isomers) [MES 11411]	decrease TNFα secretion	65 % of DMSO control	71 (% of DMSO control 5B)/(% of D		
CC(=NNC(=N)N)c1cccc(C(=O)NC(C)C(=O)N2CCN(C(=O)C(Cc3ccccc3)NC(=O)c3ccc(C(=NNC(=N)N)c4ccccc4)cc3)CC2)c1 (mixture of isomers) [MES 11465]	decrease TNFα secretion	72 % of DMSO control	71 (% of DMSO control 5B)/(% of D		
C/C(=N\N=C(N)N)c1cccc(C(=O)NCCNC(=O)[C@H](Cc2ccccc2)NC(=O)c2ccc(C(=O)c3ccccc3)cc2)c1.O=C(O)C(F)(F)F [MES 10093, (4-E)-Guanylhydrazone of 1-[(S)-N-(4-benzoylbenzoyl)-2-amino-3-phenylpropanoyl]-4-(3-acetylbenzoyl)-1,4-diazabutane trifluoroacetate]					47 (% of DMSO control 5B)/(% of D
O=C(N[C@@H](Cc1ccccc1)C(=O)N1CCN(C(=O)CCCC(=O)N2CCN(c3ccccc3)CC2)CC1)c1ccc(C(=O)c2ccccc2)cc1 [MES 10246]		46 % of DMSO control	74 (% of DMSO control 5B)/(% of D		
CN1CCN(C(=O)CCC(=O)N2CCN(C(=O)[C@H](Cc3ccccc3)NC(=O)c3ccc(C(=O)c4ccccc4)cc3)CC2)CC1 [MES 10301]		76 % of DMSO control	105 (% of DMSO control 5B)/(% of D		
CC(NC(=O)c1ccc(C(=O)c2ccccc2)cc1)C(=O)N1CCN(C(=O)CCC(=O)N2CCN(c3ccccc3)CC2)CC1 (stereo not drawn) [MES 10304]		49 % of DMSO control	64 (% of DMSO control 5B)/(% of D		
CC(=O)N[C@@H](Cc1ccccc1)C(=O)N1CCN(C(=O)[C@H](CC(C)C)NC(=O)c2cccc(/C(C)=N/NC(=N)N)c2)CC1 [MES 10306]		85 % of DMSO control	125 (% of DMSO control 5B)/(% of D		

From patent publication US6872850B2, “Small molecule inhibitors of secretion of proteins encoded by ARE-mRNAs” (Message Pharmaceuticals, priority 2001, dated 2005)
